Results on one compound are retold here after patent US20080200441A1, “ESTROGEN RECEPTOR MODULATORS ASSOCIATED PHARMACEUTICAL COMPOSITIONS AND METHODS OF USE” (University of Southern California, priority 2007, published 2008).

Structures are written as SMILES.

The subject of assay [1] is rat primary hippocampal neurons. The assay is described as follows: Intracellular calcium imaging in hippocampal neurons. Type of assay: cell-based. The procedure: The [Ca^2+]i in hippocampal neurons was measured by ratiometric Ca^2+ imaging with the Ca^2+-sensitive fluorescent dye fura-2. Prior to imaging, hippocampal neurons were loaded with 2 μM fura-2 acetoxymethyl ester (fura-2 AM, Molecular Probes, Inc., Eugene, Oreg.) for 30-45 min at 37° C. in HEPES-Buffered Solution (HBS), containing (in mM): 100 NaCl, 2.0 KCl, 1.0 CaCl2, 1.0 MgCl2, 1.0 NaH2PO4, 4.2 NaHCO3, 12.5 HEPES and 10.0 glucose. Excess fura-2 AM dye was removed by washing with HBS and then the neurons were incubated in HBS for 30 min at 37° C. to equilibrate. The coverslip with fura-2 AM-loaded neurons was removed and attached to the coverslip clamp chamber MS-502S (ALA Scientific Instruments, Westbury, N.Y.) for the Ca^2+ imaging analysis. Neurons were placed on the stage of an inverted microscope (MT-2, Olympus) equipped with epifluorescence optics (20× Nikon), The perfusion solution is HBS and the perfusion system connected to the perfusion chamber was balanced using two variable speed pumps. Imaging was performed at room temperature. Neurons were perfused at a flow rate of 2 ml/min. Fura-2 was excited by a xenon light source at 340 and 380 nm. The emitted fluorescence was filtered through a 520 nm filter, captured with an intensified CCD camera (COHU) and analyzed with InCyt Im2 software (Intracellular Imaging, Cincinnati, Ohio). The concentration of Ca^2+ was calculated by comparing the ratio of fluorescence at 340 and 380 nm against a standard curve of known [Ca^2+].

The next assay deals with spinophilin. As to conditions: primary neurons, earlier findings; cited from earlier work.
The test system of a further assay is ERK2. Put plainly: ERK phosphorylation, Western immunoblotting. The settings on record: primary hippocampal neurons. (In general: A western blot detects proteins with antibodies after separation by electrophoresis.)
The test system of assay [2] is Bcl-2. As to conditions: previously observed; cited from earlier work.
For the next assay, the system named is Bcl-XL. As to conditions: previously observed; cited from earlier work.
Assay [3] deals with Bcl-2. Put plainly: Bcl-2 expression, Western immunoblotting. As to conditions: primary hippocampal neurons.
For assay [4], the system named is rat primary hippocampal neurons. The settings on record: previous reports; cited from earlier work.
Another assay relates to MCF-7 cells. Put plainly: MCF-7 cell proliferation, MTT. It is filed as cell-based, human. As to conditions: 3 days, serially diluted concentrations, MTT at 570 nm.

In the case of `C[C@]12CCC3c4ccc(O)cc4CC(CCCCCCCCC[S+]([O-])CCCC(F)(F)C(F)(F)F)C3C1CC[C@@H]2O` (stereo partly shown) [ICI 182,780], the intracellular calcium rise result in assay [1] (compound alone) is “directly induce intracellular calcium rise”. In addition, in assay [1] (physiological glutamate), the “physiological glutamate-induced rise in calcium ion concentration” value was “potentiates the physiological glutamate-induced rise in calcium ion concentration”. The “excitotoxic glutamate-induced rise in intracellular calcium” value in assay [1] (pretreated neurons, excitotoxic glutamate) is “attenuation of the glutamate-induced rise in intracellular calcium”. Also, in the assay with spinophilin, the spinophilin expression result is reported as “comparably effective to 17β-estradiol in upregulating spinophilin expression”. In addition, in the assay with ERK2, the “phosphorylation of ERK” value is “activate the phosphorylation of ERK”. For the same compound, in the assay with Bcl-2 [2], the Bcl-2 expression result is on record as “Upregulation”. In addition, in the assay on Bcl-XL, the Bcl-XL expression entry is listed as “Upregulation”. For the same compound, the “expression of antiapoptotic protein Bcl-2” value in the assay with Bcl-2 [3] is “potentiate the expression of antiapoptotic protein Bcl-2”. Moreover, the “concentration of maximal neuroprotection” value in assay [4] is listed as 10 nM. In the assay with MCF-7 cells, the MCF-7 cell proliferation entry is reported as “promoted MCF-7 cell proliferation in a concentration dependent manner”.
